The record followed here is article PMC11120408 (Foods, 2024).

Holding throughout (assay type): biochemical, bovine
Assay [1] addresses T1, BSA–fructose (Fru) system (Bos taurus, UniProt P02769). Description: Anti-glycation: glycation products in BSA–Fru system. The note with it: 0.200 mg mL^−1; end stage. How it is done: Considering that Monascus pigments (MPs) are usually applied in the form of a mixture, the extract of Monascus-fermented rice (a high content of six known Monascus pigments, Figure S2) was selected to evaluate the anti-glycation capacity of MPs in a reaction in vitro using BSA as a model protein glycation by Fru. Briefly, BSA and Fru were dissolved in PBS solution of pH 7.4, and their final concentrations were 10.0 mg mL^−1 and 0.5 M, respectively. Then, a series of MPs were added into the above system with final concentrations of 0.005, 0.025, 0.050, 0.100, 0.150, and 0.200 mg mL^−1. After filtered through a sterile 0.22 μm membrane, the reaction mixture was incubated at 323 K for 24 h. The glycosylation products, namely fructosamine (in the early stage), α-dicarbonyl compounds (in the middle stage), and fluorescent AGEs (in the end stage), were detected according to our previous report. Here, AG was a positive control.

The target of assay [2] is T1, BSA–fructose (Fru) system. Nature of the assay: Total carbonyl and thiol group content of glycated BSA. The note with it: 0.200 mg mL^−1. How it is done:
A reported method was adopted and a slight modification was made to determine the protein carbonyl group content (PCO). Briefly, 100 μL of native BSA solution or sample solution acquired in Section 2.4.1 was incubated with DNPH solution (400 μL, 10 mM, dissolved in 2.0 M HCl) for 1 h at room temperature, with vortexing every 10 min. The sample solution without DNPH was regarded as the blank group. Then, 1000 μL of trichloroacetic acid (TCA) solution (20% (w/v)) was added, and the resulting mixture was kept at 277 K for 10 min, followed by centrifugation (10,000 rpm, 10 min, 277 K). The residue was extracted with ethanol/ethyl acetate (1:1, v/v) three times, and subsequently suspended and mixed thoroughly in 1000 μL of guanidine hydrochloride (6.0 M, pH 6.6), followed by incubating at 310 K for 15 min. The UV absorbance was recorded at 370 nm on an Infinite® M200 PRO plate reader (Tecan, Männedorf, Switzerland). The total protein carbonyl group content was calculated using the following equation:(4) PCO(nmol/mg protein)=Asample−AblankVreaction/ε1dVsampleCpro×1000 where Asample and Ablank are the absorbances of a tested sample with or without DNPH, respectively. ε1 represents the absorption coefficient of 22,000 M^−1cm^−1, and d is the cuvette length (0.5 cm). […]
The content of the free SH group was assessed using Ellman’s method with slight changes. […]

The target in assay [3] is T1, BSA–fructose (Fru) system. Nature of the assay: Structural analysis of glycated BSA (CD, ThT cross-β structure). How it is done: The changes in the secondary structures of the proteins were determined using the CD spectroscopy method on a New MOS-450 spectropolarimeter (Biologic, Seyssinet-Pariset, France). The spectra were collected over the far-UV range of 200–260 nm using a quartz cell (with an inner diameter of 1 mm) under an atmosphere of nitrogen at room temperature. Each spectrum was the average of at least three consecutive scans at a scan speed of 100 nm min^−1 with a bandwidth of 1 nm, and it was corrected for the buffer signal. The proportion of different secondary structures was calculated using the online CONTIN program (http://dichroweb.cryst.bbk.ac.uk/html/home.shtml, accessed on 4 April 2023).
The secondary structure contents of BSA before and after glycosylation were determined using CD measurement referring to the experimental procedure in Section 2.3.2.
As a popular fluorescent probe for protein aggregation, thioflavin T (ThT) was used for the detection of the amyloid β-structure of glycated BSA [29, 30]. The samples were treated with ThT (a final concentration of 0.016 mg mL^−1) at room temperature for 1 h in the dark. The ThT fluorescence intensity (excitation: 435 nm; emission: 485 nm) of the sample was recorded on a spectrofluorometer.

Assay [4] concerns the target T1, BSA–fructose (Fru) system. Nature of the assay: Surface hydrophobicity of glycated BSA (BPB, ANS).

T1 sequence (P02769 25-607): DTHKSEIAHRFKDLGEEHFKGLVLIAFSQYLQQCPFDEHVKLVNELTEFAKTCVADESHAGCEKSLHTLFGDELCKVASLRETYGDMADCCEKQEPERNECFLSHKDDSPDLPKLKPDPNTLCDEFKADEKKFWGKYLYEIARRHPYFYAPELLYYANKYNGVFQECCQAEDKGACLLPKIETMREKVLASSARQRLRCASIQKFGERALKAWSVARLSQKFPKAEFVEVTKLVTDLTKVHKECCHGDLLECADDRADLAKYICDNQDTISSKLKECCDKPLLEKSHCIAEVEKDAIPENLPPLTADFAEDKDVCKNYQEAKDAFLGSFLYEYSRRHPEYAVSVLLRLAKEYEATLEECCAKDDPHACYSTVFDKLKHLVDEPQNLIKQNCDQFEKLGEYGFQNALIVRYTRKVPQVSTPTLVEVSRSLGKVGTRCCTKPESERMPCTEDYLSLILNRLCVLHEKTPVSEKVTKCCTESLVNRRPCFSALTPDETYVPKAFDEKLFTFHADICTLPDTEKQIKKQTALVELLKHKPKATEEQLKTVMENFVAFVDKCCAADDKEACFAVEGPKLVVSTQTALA

For `N=C(N)NN` [AG, aminoguanidine], the “inhibition rate of fluorescent AGE formation” value in assay [1] is recorded as 75.7%. In addition, the “free SH group content of glycated BSA after treatment” value in assay [2] (glycated BSA 2.3, native BSA 3.6) turned out to be 2.7 µmol/g. In addition, the “carbonyl group content of glycated BSA after treatment” value in assay [2] (glycated BSA 35.6, native BSA 2.5) was 15.7 nmol/mg. Moreover, the “inhibition rate against generation of cross-β structure (ThT)” value amounted to 27.6% in assay [3] (0.005 mg mL^−1) and 41.4% in assay [3] (0.200 mg mL^−1). Further, the “α-helical structure content of treated glycated BSA (CD)” value in assay [3] (glycated BSA 47.8%, native BSA 67.6%) came out at 58.3%. Also, the “change of ANS fluorescence intensity of glycated BSA” value in assay [4] (ANS binding) is “increased slightly”. Also, the “change of BPB content bound to glycated BSA (surface hydrophobicity)” value in assay [4] (BPB binding) was “increased”.
